Data on 90 compounds can be found in PubChem BioAssay AID1159558 (GlaxoSmithKline (GSK), 2015).

SMILES strings stand for the structures. The source made the active and inactive calls.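 The calls were made as follows: active = IC50 against T. cruzi CYP51 below a set limit; inactive = the rest.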

This test deals with Sterol 14-alpha demethylase (Trypanosoma cruzi (strain CL Brener)) (UniProt Q7Z1V1). In words: T. cruzi sterol 14-alpha demethylase inhibition – biochemical, recombinant enzyme, mechanism study for T. cruzi antiparasitic project, dose response (AID 1159558).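 Also: enzyme in bacterial membranes with Anopheles gambiae CYP reductase and cytochrome b5 partners.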 The conditions noted are these: recombinant T. cruzi CYP51, BOMCC fluorescence.
Sequence of Sterol 14-alpha demethylase (Trypanosoma cruzi (strain CL Brener)) (Q7Z1V1 whole entry, looked up): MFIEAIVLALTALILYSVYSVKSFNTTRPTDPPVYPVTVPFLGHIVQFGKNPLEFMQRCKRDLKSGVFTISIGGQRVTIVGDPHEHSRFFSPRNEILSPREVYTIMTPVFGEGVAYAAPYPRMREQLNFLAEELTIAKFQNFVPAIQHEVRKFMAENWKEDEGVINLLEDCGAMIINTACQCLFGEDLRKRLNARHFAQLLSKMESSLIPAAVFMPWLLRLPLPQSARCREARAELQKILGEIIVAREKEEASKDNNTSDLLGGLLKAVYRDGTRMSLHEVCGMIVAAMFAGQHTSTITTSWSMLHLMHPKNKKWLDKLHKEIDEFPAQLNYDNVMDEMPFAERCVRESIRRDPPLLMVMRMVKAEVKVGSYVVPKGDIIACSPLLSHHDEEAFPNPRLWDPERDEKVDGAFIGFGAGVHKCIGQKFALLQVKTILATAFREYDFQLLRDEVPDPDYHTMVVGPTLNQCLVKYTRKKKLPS
On to `CC(=O)Nc1nc(-c2cc(C)ccc2C)c(C)s1`, for which the IC50 (in general, the concentration needed to halve the response being measured) was > 100 µM (inactive).

Take `Cc1nc(C(=O)Nc2ccc3c(c2)OCO3)nn1-c1ccc(Cl)cc1`: the IC50 is 32 µM.

As for `O=[N+]([O-])c1ccc(-c2nnn(-c3cccnc3)n2)o1`, the IC50 was 4 µM.

With `N#Cc1cnc(Nc2cccc(CCN3CCOCC3)c2)nc1Nc1ccccc1C(N)=O`, the IC50 was 10 µM.

`Cc1cnc(Nc2cc(Cc3ccccc3)nc(NC3CCC(O)CC3)n2)s1` (stereo not given): the IC50 is > 100 µM (inactive).

Regarding `O=C(Nc1nc2ccccc2[nH]1)c1ccc2nc[nH]c2c1`, the IC50 was 5 µM.

Turning to `COc1ccc(C(=O)Nc2cc(C(F)(F)F)ccc2N2CCOCC2)c(OC)c1`, the IC50 was > 100 µM (inactive).

Turning to `Nc1nc(-c2ccccc2)cc(-c2nc3ncccc3[nH]2)n1`, the IC50 was > 100 µM (inactive).

For `COc1cccc(-c2c(C)nn(-c3nc(N)nc(-c4ccccn4)n3)c2N)c1`, the IC50 is > 100 µM (inactive).

As to `Cc1ccc2sc(NC(=O)Cn3cnc([N+](=O)[O-])n3)nc2c1`, the IC50 was > 100 µM (inactive).

As to `CC1CN(Cc2ccc(C#N)cc2)CCN1c1ccc(NC(=O)c2ccccc2F)cc1` (stereo not given), the half-maximal inhibitory concentration (IC50) was 32 µM.

For `N#Cc1cc(-c2ccnc(Nc3cccc(CN4CCOCC4)c3)n2)ccc1NCCN`, the IC50 was 32 µM.

Take `O=C(CCc1ccc(-c2ccccc2)o1)N1CCN(c2ccc(O)cc2)CC1`: the IC50 was 2.5 µM.

As for `COc1ccc2ncc(=O)n(CCN3CC[C@H](NCc4ncc(Cl)c5[nH]ncc45)[C@H](O)C3)c2n1`, the IC50 is > 100 µM (inactive).

As for `CS(=O)(=O)N1CCC(Nc2ncc(Br)c(Nc3cccc(F)c3C(N)=O)n2)CC1`, the IC50 is > 100 µM (inactive).

As to `COc1ccc(NS(=O)(=O)c2cc(NC(=O)c3ccc([N+](=O)[O-])s3)ccc2OC)cc1`, the IC50 is 1 µM.

As for `CC(c1ccccn1)N(C)Cc1nc2ccccc2n1C(C)C` (stereo not given), the IC50 was 32 µM.

As for `CCOc1ccc(OCC(=O)N2c3ccccc3CC2C(=O)NC)cc1` (stereo not given), the IC50 was > 100 µM (inactive).

Take `NC(=O)c1ncc(N[C@@H]2CCCNC2)nc1Nc1cccc(Cl)c1`: the IC50 was > 100 µM (inactive).

In the case of `O=C(Nc1ccc(Br)cn1)c1ccc(Cn2cnc([N+](=O)[O-])n2)cc1`, the IC50 was > 100 µM (inactive).

For the compound `C=CCn1nc([N+](=O)[O-])nc1Oc1ccc(Cl)cc1Cl`, the IC50 is 20 µM.

On to `CC(=O)Nc1ccc(-c2csc(NC(=O)c3ccc([N+](=O)[O-])s3)n2)cc1`, for which the IC50 was 6.3 µM.

With `C[C@@H](Oc1cc(-n2cnc3cc(N)ccc32)sc1C(N)=O)c1ccccc1Cl`, the IC50 is 3.2 µM.

For `CCOc1ccc(CC(=O)N2c3ccccc3CC2C(=O)NC)cc1` (stereo not given), the IC50 was > 100 µM (inactive).

`CNC(=O)C1Cc2ccccc2N1C(=O)COc1cccc(OC)c1` (stereo not given): the IC50 is 100 µM.

As to `O=C(NC(CO)c1ccc(F)cc1)c1ccc(-c2c[nH]c3ncccc23)s1` (stereo not given), the IC50 was 1.3 µM.

With `COc1ccc(OC)c(S(=O)(=O)N(Cc2c(F)cccc2F)[C@@H]2CCN(C#N)C2)c1`, the IC50 is > 100 µM (inactive).

As for `CCc1c(C)nc(-n2nc(C)cc2NC(=O)COc2ccccc2F)[nH]c1=O`, the IC50 is > 100 µM (inactive).

As for `CN(C)Cc1cccc(Nc2nccc(-c3ccc(NCCN)c(C#N)c3)n2)c1`, the IC50 is 6.3 µM.

In the case of `CCCCCNC(=O)c1c[nH]c2ccc(S(=O)(=O)N(C)c3ccc(OCC)cc3)cc2c1=O`, the IC50 was 1.6 µM.

With `CCCCn1nnnc1CSc1nc(C)cc(C)c1C#N`, the IC50 is 50 µM.

Regarding `O=C(c1cnn(-c2ccccc2)n1)N1CCCC(n2ccnc2)C1` (stereo not given), the IC50 was 0.079 µM.

For the compound `CCN(Cc1ccncc1)Cc1ccc(NC(=O)c2cc(-c3ccc(F)cc3)n[nH]2)cc1`, the IC50 is 0.079 µM.

On to `Cc1ccc(S(=O)(=O)Nc2ccc(CN3CCN(C(=O)c4cccc(C)c4)CC3)cc2)cc1`, for which the IC50 was 79 µM.

For the compound `COc1ccc(-c2ccc3nnc(-c4ccc(O)c(OC)c4)n3c2)cn1`, the IC50 is > 100 µM (inactive).

Consider `Cc1nc(-c2nc(NCc3ccc(Cl)cc3)c3cccnc3c2O)n[nH]1`, for which the IC50 was 16 µM.

Regarding `N#Cc1cccc(CN2CCC(c3nc(-c4ccc(C(F)(F)F)nc4)no3)CC2)c1`, the IC50 is > 100 µM (inactive).

For the compound `Cc1ccc(S(=O)(=O)Cn2nnnc2C(c2cccnc2)N2CCN(c3ccccc3)CC2)cc1` (stereo not given), the IC50 is 0.2 µM.

In the case of `O=C(NCCc1nc(-c2ccc(F)c(F)c2)n[nH]1)C1CCCCC1`, the IC50 was 25 µM.

As to `CCN(CC)S(=O)(=O)c1ccc(OC)c(NC(=O)c2ccc([N+](=O)[O-])s2)c1`, the IC50 was 32 µM.

Consider `O=C(CSc1nnc2ccc(-c3ccc(F)cc3)nn12)N1CCCCC1`, for which the IC50 is > 100 µM (inactive).

As for `N#Cc1ccc(C(=O)Nc2cccc(-c3cccc(CN4CCC(O)CC4)c3)c2)cc1`, the IC50 is 25 µM.

Regarding `Nc1nccc(-c2csc(Nc3ccc(Cl)cc3)n2)n1`, the half-maximal inhibitory concentration (IC50) was 1.3 µM.

With `Cc1nc2nc(C)c(Cc3ccc(C(C)C)cc3)c(=O)n2[nH]1`, the IC50 was > 100 µM (inactive).

Take `COc1ccc2ncc(=O)n(CCN3CCC(NCc4ccc(-c5cccs5)cc4)CC3)c2n1`: the IC50 was 25 µM.

Take `O=[N+]([O-])c1ccc(C2=CC(c3ccccc3)=NCCN2)cc1`: the IC50 was 50 µM.

`Cc1cc2nc(CN(C)Cc3ncccc3C)[nH]c2cc1C`: the IC50 was 79 µM.

As for `O=C(Nc1cccc(Cl)c1)Nc1ccc([N+](=O)[O-])cc1Cl`, the IC50 was 5 µM.

Consider `O=C1CCCCCC1(Cc1cnc[nH]1)c1ccc(Cl)cc1Cl` (stereo not given), for which the IC50 is 0.1 µM.

With `NS(=O)(=O)c1ccc(CNC(=O)c2ccc([N+](=O)[O-])s2)cc1`, the IC50 is 40 µM.

`CC1(C)CCC(=Cc2ccc(Cl)cc2)CC1(O)Cn1ccnc1` (stereo not given): the IC50 was 0.05 µM.

Regarding `Cc1ccc(S(=O)(=O)Nc2ccc(CN3CCN(C(=O)c4cccc(C#N)c4)CC3)cc2)cc1`, the IC50 was > 100 µM (inactive).

As to `Cn1nc([N+](=O)[O-])nc1Oc1ccc(C(=O)c2ccccc2)cc1`, the IC50 was > 100 µM (inactive).

As for `CCCN(Cc1ccc(OC)c(OC)c1)Cc1cc(=O)c2c(C)cc(C)cc2[nH]1`, the IC50 was > 100 µM (inactive).

As for `O=C(NCC(c1cccs1)N1CCOCC1)c1ccc([N+](=O)[O-])o1` (stereo not given), the IC50 was 10 µM.

As to `Cc1nn(C2CCS(=O)(=O)C2)c(C)c1CN(C)C(=O)C=Cc1sc2ccccc2c1Cl` (stereo not given), the IC50 is 0.032 µM.

As to `Oc1cccnc1-c1n[nH]c(Cc2ccccc2)n1`, the IC50 was > 100 µM (inactive).

With `CC(C)S(=O)(=O)c1ccc(-c2cnc(N)c3cc(-c4ccnc(N)n4)ccc23)cc1`, the IC50 is 16 µM.

Consider `C[C@@H](Oc1cc(-n2cnc3ccc(CC(O)CO)cc32)sc1C(N)=O)c1ccccc1Cl` (stereo not given in full), for which the IC50 was 25 µM.

Take `Nc1nc(-c2ccccn2)nc(N)c1Cc1c(F)cccc1Cl`: the IC50 was > 100 µM (inactive).

Turning to `CCN(C)Cc1ccc(N2CCC(NS(=O)(=O)c3ccc4c(c3)CCO4)CC2)nc1`, the IC50 was > 100 µM (inactive).

Consider `C=CCN(Cc1cccs1)C(=O)CSc1nnc(-c2ccc3c(c2)OCO3)o1`, for which the IC50 was 7.9 µM.

Consider `O=C(NCC(c1cccnc1)N1CCc2ccccc2C1)C(=O)Nc1cccc(Cl)c1` (stereo not given), for which the IC50 was 0.063 µM.

With `CCCc1nc2nc(N)nc(N)c2cc1CC`, the IC50 is > 100 µM (inactive).

Take `CCC(=O)Nc1ccc(-c2nc3ccc(Cl)cc3[nH]2)cc1`: the IC50 is > 100 µM (inactive).

For `CC(=O)Nc1ccc(Nc2nccc(-c3cnn4ncccc34)n2)cc1C(F)(F)F`, the IC50 was 32 µM.

With `O=C(CCCn1cnc([N+](=O)[O-])n1)Nc1cccc(Cl)c1`, the IC50 is 50 µM.

For `NC(=O)c1cc(F)ccc1Nc1nc(NC2CCC(O)CC2)ncc1Cl` (stereo not given), the IC50 is 32 µM.

On to `CN(Cc1cc2ccccc2s1)c1ncc2c(N)nc(N)nc2n1`, for which the IC50 was > 100 µM (inactive).

For the compound `Cn1cc(CN2CCN(c3ccc4c(c3)CCN(C(=O)[C@H]3C[C@@H]3c3ccccc3)CC4)CC2)cn1`, the IC50 was 16 µM.

With `CC1(Oc2cncc(Cl)c2)CCN(Cc2cc3ccccc3[nH]2)C1` (stereo not given), the IC50 is 10 µM.

Regarding `CCn1nccc1CN(C)C(=O)C=Cc1ccc(Cl)cc1`, the IC50 is 0.32 µM.

As to `O=C(Cn1cnc2c(-c3ccccc3)csc2c1=O)N1CCCCC1`, the half-maximal inhibitory concentration (IC50) was 40 µM.

Consider `CN(C)c1ncc(-c2cncn2CCOc2ccc(Cl)cc2)cn1`, for which the IC50 is 0.05 µM.

For `COc1cccc2sc(CN(C)C(=O)C3CNCCN3c3ccc(F)cc3)c(C)c12` (stereo not given), the IC50 is 0.25 µM.

Regarding `COc1ccc(C(=O)Nc2ccc(NC(=O)CO)cc2)cc1`, the IC50 is > 100 µM (inactive).

`Oc1c(-c2n[nH]c(Cc3ccc(Cl)cc3)n2)ncc2cccnc12`: the half-inhibitory concentration (IC50) is 32 µM.

With `Cc1cc(Br)cc(C(=O)c2c(C(C)C)c(=O)[nH]c(=O)n2Cc2ccnc(N)c2)c1`, the IC50 was 0.016 µM.

`CCOc1ccc2nc(NC(=O)c3ccc([N+](=O)[O-])s3)sc2c1`: the IC50 was > 100 µM (inactive).

With `Oc1c(-c2n[nH]c(CCc3ccccc3)n2)ncc2cccnc12`, the IC50 is > 100 µM (inactive).

In the case of `Oc1c(-c2n[nH]c(Cc3ccc(F)cc3)n2)ncc2cccnc12`, the IC50 is > 100 µM (inactive).

For the compound `O=C(NC(c1ccc(Cl)cc1)c1cnccn1)C1CCN(C(=O)Nc2cccc(C(F)(F)F)c2)CC1` (stereo not given), the IC50 was 0.13 µM.

Turning to `CS(=O)(=O)NC1CCC(Nc2ncc(Br)c(Nc3ccccc3C(N)=O)n2)CC1` (stereo not given), the IC50 was > 100 µM (inactive).

As for `O=C(Cc1ccccc1)Nc1ccccc1C(=O)Nc1nccs1`, the IC50 was > 100 µM (inactive).

Regarding `CN(Cc1ccccc1)Cc1nnnn1C1CCN(Cc2ccc(-n3ccnc3)cc2)CC1`, the IC50 is 0.05 µM.

Take `N#Cc1ccc(S(=O)(=O)N2CCN(Cc3cccc(-c4ccncc4)c3)CC2)cc1`: the IC50 was 0.079 µM.

In the case of `OC[C@@H](Nc1nccc(-c2c(-c3ccc(F)cc3)ncn2C2CCNCC2)n1)c1ccccc1`, the IC50 is 25 µM.

On to `COc1ccc(Cc2nc(-c3ncc4cccnc4c3O)n[nH]2)cc1OC`, for which the IC50 was > 100 µM (inactive).

For `O=C(c1ccccc1)N1CCC(C(=O)N2CCC(Oc3ccccc3Cl)CC2)CC1`, the IC50 was 20 µM.

For `CC(C)(C)C(Cn1ccnc1)NC(=O)c1ccc2nc(C3CC3)oc2c1` (stereo not given), the IC50 was 0.1 µM.
